From patent publication US10085973B2, “Pharmaceutical composition containing a compound having a thrombopoietin receptor agonistic activity” (Shionogi & Co., Ltd., priority 2012, dated 2018)
Converted amounts (≈) assume the structure as drawn. Where two headings read alike, the source gives them in different places.

Experiments:
[1] = PK model from phase 1 trial in healthy male adults (plasma concentration); assay type: in vivo, human
From the text: (§1) Using the plasma concentration of the drug and the platelet count data of 54 cases obtained in phase 1 trial carried out in Japan to healthy male adults, a PK/PD model was constructed that can describe pharmacokinetics and a profile of a platelet count. The PK model describing pharmacokinetics was a three-compartment model including three compartments in the absorption process in order to explain the delay in absorption. The PD model describing the relation between the plasma concentration and the profile of platelets counts was a model including five compartments in order to explain the maturation process of platelets. […] We assumed that the distributions of respective model parameters and the distributions of the residual errors of the models follow a log-normal distribution. Parameters were estimated by using the first order conditional estimation method with interaction in a software NONMEM (version VI, level 2.0).

platelet count [2] = experiment: PD model from phase 1 trial in healthy male adults (profile of platelet count); assay type: in vivo, human; settings: for EC50: Homo sapiens, Platelet, read-out: EC50 (sigmoid Emax model), mean
From the text: as §1

[3] = Estimated PK model parameters for chronic liver disease patients (for Monte-Carlo simulation); set-up: species or system human
From the text: (§2) Based on the PK/PD model in healthy adults as described in (Test Example 1), model parameters in chronic liver disease patients were estimated on the basis of the following assumptions.
PK Parameters (CL, V2/F, Q2/F, V3/F, Q3/F, V4/F, Q4/F, ktr and ka):
Therefore, as PK parameters those from healthy adults were used. As parameters ka and ktr, estimated values under the conditions of postprandial and tablets were used in line with clinical usage.

platelet count [4] = experiment: Estimated PD model parameters for chronic liver disease patients (for Monte-Carlo simulation); set-up: species or system human
From the text: as §2
Based on the pre-defined level of platelet count expected in chronic liver disease patients, the average and range of PLT0 were set to 3×10^4/μL and 2×10^4 to 4.9×10^4/μL, respectively.
It was reported that platelets destruction in chronic liver disease patients was promoted (see Reference 1) and the survival period of platelets was about ⅔ of that of healthy adults (see References 2 and 3). Therefore, kdeg, a parameter representing the elimination rate of platelets, was set to the value which was about 1.5 times of the value of healthy adults, i.e. 0.009 hr^−1. In addition, based on the relationship that the production rate of platelets is equal to the elimination rate of platelets at baseline, kpr, a parameter representing the production rate of platelets, was calculated from the formula: PLT0×kdeg. As a result, kpr was 0.027×10^4/μL/hr which was lower than the value in healthy adults (0.116×10^4/μL/hr). This estimated value matched the previous report that the production rate of platelets was decreased in chronic liver disease patients (see Reference 1).
It was assumed that a parameter km representing the maturation rate of platelets in chronic liver disease patients is similar to that in healthy adults. Therefore, the estimated value in healthy adults was used as km.
When the plasma concentration is sufficiently lower than EC50 (EC50>>C), the drug efficacy of lusutrombopag can be approximated by Emax/EC50. It was assumed based on the clinical data of eltrombopag, a drug having the same efficacy (see References 4 and 5) that Emax/EC50 in this trial was about 3 times of the value of healthy adults. […] Meanwhile, it was assumed that r in the patients was similar to that in healthy adults. Therefore, the value in healthy adults was used as r.
A reduction in the production rate of platelets with an increase in platelets, i.e. the negative feedback phenomenon, is represented by the formula (PLT0/PLT)^γ. […] Therefore, the negative feedback phenomenon was not taken into account in the present simulation.
As inter-individual variability of the respective PD parameters, the values in healthy adults were used.
The intra-individual variability of plasma concentration was not taken into account in the present simulation. As the intra-individual variability of a platelet count, the value in healthy adults was used.

- CL (apparent total clearance), mean [1]: 0.776 L/h
- Intra-individual variability (PK model, plasma concentration) [1]: 12.1%
- Q3/F (inter-compartmental clearance), mean [1]: 0.946 L/h
- Q4/F (inter-compartmental clearance), mean [1]: 0.0262 L/h
- V3/F (volume of distribution of peripheral compartment), mean [1]: 6.28 L
- V4/F (volume of distribution of peripheral compartment), mean [1]: 2.71 L
- ka (transfer rate constant from absorption compartments to central compartment), mean ([1]; Fasting + solution): 0.563 h⁻¹
- ktr (inter-absorption-compartmental transfer rate constant), mean ([1]; Fasting + solution): 4.19 h⁻¹
- ka (transfer rate constant from absorption compartments to central compartment), mean ([1]; Postprandial + solution): 0.285 h⁻¹
- ktr (inter-absorption-compartmental transfer rate constant), mean ([1]; Postprandial + solution): 2.15 h⁻¹
- ka (transfer rate constant from absorption compartments to central compartment), mean ([1]; Postprandial + tablet): 0.854 h⁻¹
- ktr (inter-absorption-compartmental transfer rate constant), mean ([1]; Postprandial + tablet): 1.38 h⁻¹
- Q3/F, mean [3]: 0.946 L/h
- Q4/F, mean [3]: 0.0262 L/h
- V3/F, mean [3]: 6.28 L
- V4/F, mean [3]: 2.71 L
- ka, mean ([3]; postprandial and tablets): 0.854 h⁻¹
- ktr, mean ([3]; postprandial and tablets): 1.38 h⁻¹
- CL, mean ([3]; value of healthy adults used): 0.776 L/h
- V2/F, mean ([3]; × (1 + (BW − 63) × 0.0172)): 15.9 L
- EC50, mean (platelet count [4]; set by assumption): 0.18 µg/mL (≈ 0.304 µM)
Structure (SMILES): CCCCCCO[C@@H](C)c1cccc(-c2csc(NC(=O)c3cc(Cl)c(/C=C(\C)C(=O)O)c(Cl)c3)n2)c1OC [lusutrombopag, (E)-3-[2,6-dichloro-4-[4-[3-[(S)-1-hexyloxyethyl]-2-methoxyphenyl]-thiazol-2-ylcarbamoyl]-phenyl]-2-methylacrylic acid]
- Vd/F ([1]; male, human, plasma, oral, × (1 + (BW − 63) × 0.0172), BW body weight kg, read-out: V2/F (volume of distribution of the central compartment), mean): 15.9 L
- Emax (sigmoid Emax model), mean (platelet count [2]): 3.52
- kdeg (elimination rate constant from the platelet compartment), mean (platelet count [2]): 1.61e-06 s⁻¹
- km (inter-PD-compartmental transfer rate constant), mean (platelet count [2]): 0.0394 h⁻¹
- r (sigmoid Emax model), mean (platelet count [2]): 2.03
- EC50 (platelet count [2]; 50 mg/dose): 0.0216 µg/mL (≈ 0.0365 µM)
- EC50 (platelet count [2]; <50 mg/dose): 0.0647 µg/mL (≈ 0.109 µM)
- kdeg, mean (platelet count [4]; about 1.5 times of healthy adults): 2.5e-06 s⁻¹
- Emax, mean (platelet count [4]; set by assumption): 29.3
- km, mean (platelet count [4]; value of healthy adults): 0.0394 h⁻¹
- r, mean (platelet count [4]; value of healthy adults): 2.03
